Assay results: patent US8815535B2, “Disk diffusion assay for oritavancin” (The Medicines Company, priority 2011, dated 2014)
Like-named read-outs stand apart in the source and are kept apart here.

Key:
VISA Mu50 (ATCC 700699) [1] = test: Disk diffusion assay (zone of inhibition); assay type: cell-based; conditions: Staphylococcus aureus, Oxoid disks, 20 μl of 18 mg/ml oritavancin in 5% P80, stored 30 days at room temperature, prediffusion 6 hours at 4° C., read-out: Inhibition zone diameter
S. aureus isolates = test: Disk diffusion assay, panel of isolates; assay type: cell-based, Staphylococcus aureus
Excerpt: (§1) The study was designed to identify conditions that improve oritavancin diffusion in agar and consequently yield a zone diameter ≧15 mm for the CLSI quality control strain MSSA ATCC 25923. Excipients that increased the disk diffusion of oritavancin in agar relative to disks containing only oritavancin were identified and selected for further study. […] A prediffusion step at room temperature was introduced to maximize oritavancin diffusion prior to initiation of bacterial growth. In this step, the antimicrobial disks were placed on agar plates seeded with a bacterial isolate and incubated at room temperature for 3 hours. Plates were then incubated overnight at 37° C. Zone diameters around the disks in which bacterial growth was inhibited were measured with a ruler and reported in millimeters.
(§2) Ethanol-sterilized Whatman paper disks (6 mm diameter) were allowed to dry then impregnated with 20 microliters of oritavancin solution containing total amounts ranging from 90 to 360 micrograms. Disks were allowed to dry at room temperature for various times prior to use.
Bacterial suspensions were prepared and adjusted to an optical density of 0.1 at 600 nm. Standard cation-adjusted Mueller Hinton agar plates (90 mm diameter) were seeded with bacterial suspensions by initially swabbing the center of plate then moving outward towards the edge. The plate was swabbed a second time, perpendicular to the orientation of the first swab. To assess the impact of prediffusion on diameter of inhibition zones, two disks were immediately placed on one half of the plate and the plate was incubated for 3 hours at room temperature. After 3 hours, two additional disks were placed on the other half of the plate then the plate was incubated overnight at 37° C. Zone diameters were measured with a ruler and reported in millimeters.
(§3) Oritavancin powder was dissolved in freshly-prepared solutions of the indicated excipients at concentrations of 0.625, 1.25, 2.5, 5, and 10 mg/ml (adjusted for potency based on lot 875561L00 purity of 83.1%) by vortexing for a minimum of 5 minutes. Oritavancin solutions in the various excipients, while not visually clear, were free from any apparent particulates as assessed visually. Sterile Oxoid blank disks were impregnated with 20 μl of these oritavancin solutions, resulting in oritavancin disk loads ranging from 12.5 to 200 μg. Unless indicated otherwise, disks were allowed to dry overnight at room temperature prior to use.
(§4) Bacterial suspensions from isolated colonies on overnight cation-adjusted Mueller Hinton agar plates were prepared in sterile saline and adjusted to an optical density of 0.1 at 600 nm Standard cation-adjusted Mueller Hinton agar plates (90 mm diameter) were seeded with bacterial suspensions by initially swabbing the center of plate then moving outward. Swabbing was continued at a right angle and then at an oblique angle to the first and second swabs. Disks were placed upon the seeded plates with sterile forceps. Plates were then incubated overnight at 37° C. and inhibition zone diameters were measured with a ruler and reported in millimeters.

VISA Mu50 (ATCC 700699) [2] = test: Disk diffusion assay (zone of inhibition); assay type: cell-based, Staphylococcus aureus; conditions: for zone of inhibition at 360 µg/disc: ATCC 700699; for zone of inhibition at 100 µg/disc: 100 μg in 4% P80/Span 80 (1:1); for zone of inhibition at 200 µg/disc: 200 μg in 4% P80/Span 80 (1:1)
Excerpt: as §1, with “In this step, the antimicrobial disks were placed on agar plates seeded with a bacterial isolate and incubated at room temperature for 3 hours.” left out
as §2
Bacterial suspensions were prepared and adjusted to an optical density of 0.1 at 600 nm. Standard cation-adjusted Mueller Hinton agar plates (90 mm diameter) were seeded with bacterial suspensions by initially swabbing the center of plate then moving outward towards the edge. The plate was swabbed a second time, perpendicular to the orientation of the first swab. […] After 3 hours, two additional disks were placed on the other half of the plate then the plate was incubated overnight at 37° C. Zone diameters were measured with a ruler and reported in millimeters.
as §3, §4

[3] = Staphylococcus aureus, Mu50, calcium alginate swab, dried overnight, read-out: Inhibition zone diameter
[4] = Staphylococcus aureus, Mu50, cotton swab, dried overnight, estimate of diameter

## CN[C@H](CC(C)C)C(=O)N[C@H]1C(=O)N[C@@H](CC(N)=O)C(=O)N[C@H]2C(=O)N[C@H]3C(=O)N[C@H](C(=O)N[C@H](C(=O)O)c4cc(O)cc(O)c4-c4cc3ccc4O)[C@H](O[C@H]3C[C@](C)(N)[C@@H](O)[C@H](C)O3)c3ccc(c(Cl)c3)Oc3cc2cc(c3O[C@@H]2O[C@H](CO)[C@@H](O)[C@H](O)[C@H]2O[C@H]2C[C@](C)(NCc3ccc(-c4ccc(Cl)cc4)cc3)[C@@H](O)[C@H](C)O2)Oc2ccc(cc2Cl)[C@H]1O [oritavancin, N-(4-(4-chlorophenyl)benzyl)A82846B]
VISA Mu50 (ATCC 700699) [1]
  zone of inhibition at 18000 µg/mL: 13 mm
S. aureus isolates; 360 μg in 5% P80
  Zone diameter smaller for the two reduced-susceptibility isolates compared to MSSA and MRSA isolates exhibiting the same BMD MICs: approximately 2 mm
S. aureus isolates; MSSA and MRSA strains, 360 μg in 5% P80
  Average increase of zone diameter by prediffusion: approximately 2.5 mm
S. aureus isolates; Staphylococcus aureus, 19 wild-type clinical isolates, 20 μl of 1.25 mg/ml in 4% P80/Span 80 (1:1), calcium alginate swabs, read-out: Inhibition zone diameters
  zone of inhibition at 1250 µg/mL: 20 to 24 mm
S. aureus isolates; VISA and oritavancin reduced-susceptibility isolates, 360 μg in 5% P80
  Average increase of zone diameter by prediffusion: approximately 1.1 mm
S. aureus isolates; many S. aureus strains, different combinations of the alterations to the traditional assay
  Zone diameters: > 15 mm
VISA Mu50 (ATCC 700699) [2]; Mu50, 12.5 μg in 4% P80/Span 80 (1:1), calcium alginate swab, dried overnight
  Inhibition zone diameter: no zone
VISA Mu50 (ATCC 700699) [2]; Mu50, 12.5 μg in 4% P80/Span 80 (1:1), cotton swab, dried overnight, estimate of diameter
  Inhibition zone diameter: no zone
VISA Mu50 (ATCC 700699) [2]; Mu50, 25 μg (20 μl of 1.25 mg/ml) in 4% P80/Span 80 (1:1), calcium alginate swab, dried overnight
  Inhibition zone diameter: no zone
VISA Mu50 (ATCC 700699) [2]; Mu50, 20 μl of 1.25 mg/ml oritavancin in 5% Brij 30
  Inhibition zone diameter: no zone
VISA Mu50 (ATCC 700699) [2]; Staphylococcus aureus, 3 h, 360 μg oritavancin, excipient 10% HPCD, disks made same day, 3 h prediffusion, average of 2 disks, read-out: Average zone diameter
  zone of inhibition at 360 µg/disc: 17.3 mm
VISA Mu50 (ATCC 700699) [2]; Staphylococcus aureus, 192 h, 360 μg in 5% P80, Experiment 2, disks stored 8 days, no prediffusion, read-out: Zone diameter (mm ± SD)
  zone of inhibition at 360 µg/disc: 13 mm
VISA Mu50 (ATCC 700699) [2]; Staphylococcus aureus, 336 h, 360 μg in 5% P80, Experiment 1, disks stored 14 days, no prediffusion, read-out: Zone diameter (mm ± SD)
  zone of inhibition at 360 µg/disc: 13.5 ± 0.7 mm
VISA Mu50 (ATCC 700699) [2]; Staphylococcus aureus, 360 μg in 5% P80, Average of experiments, no prediffusion, read-out: Zone diameter (mm ± SD)
  zone of inhibition at 360 µg/disc: 13.3 ± 0.5 mm
VISA Mu50 (ATCC 700699) [2]; Staphylococcus aureus, 360 μg in 5% P80, Average of experiments, prediffusion, read-out: Zone diameter (mm ± SD)
  zone of inhibition at 360 µg/disc: 14.3 ± 0.3 mm
VISA Mu50 (ATCC 700699) [2]; Staphylococcus aureus, 360 μg in 5% P80, Experiment 1, disks stored 14 days, 3 h prediffusion at room temperature, read-out: Zone diameter (mm ± SD)
  zone of inhibition at 360 µg/disc: 14.5 mm
VISA Mu50 (ATCC 700699) [2]; Staphylococcus aureus, 360 μg in 5% P80, Experiment 2, disks stored 8 days, 3 h prediffusion at room temperature, read-out: Zone diameter (mm ± SD)
  zone of inhibition at 360 µg/disc: 14 mm
VISA Mu50 (ATCC 700699) [2]; Staphylococcus aureus, 360 μg oritavancin, excipient 5% P80, disks stored 5 days at room temperature, 3 h prediffusion, average of 2 disks, read-out: Average zone diameter
  zone of inhibition at 360 µg/disc: 15 mm
VISA Mu50 (ATCC 700699) [2]; Staphylococcus aureus, Mu50, 25 μg in 4% P80/Span 80 (1:1), cotton swab, dried overnight, estimate of diameter
  zone of inhibition at 25 µg/disc: 7 mm
VISA Mu50 (ATCC 700699) [2]; Staphylococcus aureus, Mu50, 50 μg in 4% P80/Span 80 (1:1), calcium alginate swab, dried overnight, read-out: Inhibition zone diameter
  zone of inhibition at 50 µg/disc: 7 mm
VISA Mu50 (ATCC 700699) [2]; Staphylococcus aureus, Mu50, 50 μg in 4% P80/Span 80 (1:1), cotton swab, dried overnight, estimate of diameter
  zone of inhibition at 50 µg/disc: 10 mm
VISA Mu50 (ATCC 700699) [2]; Staphylococcus aureus, Mu50, 50 μg, 4% P80/Span 80 ratio 50:50, dried overnight, estimate of diameter
  zone of inhibition at 50 µg/disc: 10 mm
VISA Mu50 (ATCC 700699) [2]; Staphylococcus aureus, Mu50, 50 μg, 4% P80/Span 80 ratio 60:40, dried overnight, estimate of diameter
  zone of inhibition at 50 µg/disc: 11 mm
VISA Mu50 (ATCC 700699) [2]; Staphylococcus aureus, Mu50, 50 μg, 4% P80/Span 80 ratio 70:30, dried overnight, estimate of diameter
  zone of inhibition at 50 µg/disc: 12 mm
VISA Mu50 (ATCC 700699) [2]; Staphylococcus aureus, Mu50, 50 μg, 4% P80/Span 80 ratio 80:20, dried overnight, estimate of diameter
  zone of inhibition at 50 µg/disc: 12 mm
VISA Mu50 (ATCC 700699) [2]; Staphylococcus aureus, Mu50, 50 μg, 4% P80/Span 80 ratio 90:10, dried overnight, estimate of diameter
  zone of inhibition at 50 µg/disc: 12 mm
VISA Mu50 (ATCC 700699) [2]; [3]
  zone of inhibition at 100 µg/disc: 8 mm
  zone of inhibition at 200 µg/disc: 8 mm
VISA Mu50 (ATCC 700699) [2]; [4]
  zone of inhibition at 100 µg/disc: 11 mm
  zone of inhibition at 200 µg/disc: 10 mm
VISA Mu50 (ATCC 700699) [2]; Staphylococcus aureus, Mu50, 20 μl of 1.25 mg/ml oritavancin in 1% poly(ethylene glycol) sorbitol hexaoleate, read-out: Inhibition zone diameter
  zone of inhibition at 1250 µg/mL: 8 mm
VISA Mu50 (ATCC 700699) [2]; Staphylococcus aureus, Mu50, 20 μl of 1.25 mg/ml oritavancin in 5% Merpol SE, read-out: Inhibition zone diameter
  zone of inhibition at 1250 µg/mL: 9 mm
